Like-named read-outs stand apart in the source and are kept apart here.

The term IC50 denotes the concentration at which inhibition is half-maximal.

Data set [1] addresses EP2 subtype of the human PGE2 receptor (Homo sapiens, UniProt P43116). As to the kind of experiment: cAMP antagonism test on the human EP2 receptor (HTRF cAMP detection). Format: cell-based. Particulars: hEP2 receptor. The essentials: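 Read-out is a competitive HTRF for cAMP: lysate cAMP displaces cAMP-d2 from Eu cryptate-labelled antibody, and antagonism raises the 665/620 nm ratio. Compound (0.8 nM–16.5 μM) added to EP2 cells 20 min at RT before 60 min PGE2 challenge (3× stock 1.5 nM) with IBMX, followed by 20 min lysis.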
On the technique in general: In TR-FRET formats the signal depends on donor and acceptor labels being close together.

In data set [2] the target is EP4 subtype of the human PGE2 receptor (Homo sapiens, UniProt P35408). As to the kind of experiment: cAMP antagonism test on the human EP4 receptor (HTRF cAMP detection). Particulars: selectivity towards hEP4, IC50 measured by cAMP antagonism test. The class given is cell-based. The essentials: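 Competitive HTRF cAMP read-out (cAMP-d2 vs Eu-cryptate anti-cAMP antibody, 665/620 nm ratio) on lysed human EP4 cells. Compound (0.8 nM–16.5 μM) applied 20 min at RT before 60 min PGE2 challenge (3× solution 0.3 nM, IBMX present); 20 min lysis precedes reading.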

The next data set concerns cumulus-oocyte complexes. Briefly: Cumulus expansion test in vitro. The class given is cell-based, mice (strain: B6D2F1). To be noted: for inhibition at 1 µM / inhibition at 0.5 µM: Mus musculus, 0.3 μM PGE2 for stimulation; for inhibition at 1 µM: read-out: % reduction at 1 μM (reduction in the cumulus expansion); for inhibition at 0.5 µM: read-out: % reduction at 0.5 μm (reduction in the cumulus expansion). The procedure:
4.2. Cumulus Expansions Test In Vitro In immature female mice (strain: B6D2F1 from Charles River), at an age of 14-18 days, the folliculogenesis was induced by a single administration (intraperitoneal) of 10 IU of PMSG (pregnant mare serum gonadotropin; Sigma G-4877, Lot 68H0909). 47-50 hours after the injection, the ovaries were removed and the cumulus-oocyte complexes removed. At this stage, the cumulus complex is not yet expanded. The cumulus-oocyte complexes were now incubated for 20-24 hours with prostaglandin E2 (PGE) (0.3 μM), vehicle control (ethanol) or test substances. Medium: alpha-MEM medium with 0.1 mM IBMX, pyruvate (0.23 mM), glutamine (2 mM), pen/strep 100 IU/ml pen. and 100 μg/ml strep.), HSA (8 mg/ml) and foetal bovine serum (FBS, 10%). The cumulus expansion was then established through the subdivision into four stages (after Vanderhyden et al. Dev Biol. 1990 August; 140(2):307-317).

Data set [3] is described as follows: Pharmacokinetic parameters after intravenous administration. The class given is in vivo, rat. Particulars: for half-life: plasma. The procedure:
5. Determination of the Pharmacokinetic Parameters after Intravenous Administration
5.1. Intravenous Administration:
For this, the substances were administered in dissolved form, compatible solubilizers such as PEG400 and/or ethanol being used in tolerable quantity. The substances were administered at a dosage of 0.1-1 mg/kg. The administration was effected in the female rat as a bolus injection. Here, at various times after bolus injection ca. 100-150 μl blood samples were withdrawn from the jugular vein via a catheter. The blood samples were treated with lithium-heparin as anticoagulant and stored refrigerated until further work-up. After centrifugation of the samples for 15 mins at 3000 rpm, an aliquot of 100 μl was withdrawn from the supernatant (plasma) and precipitated by addition of 400 μl of cold acetonitrile or methanol (absolute). The precipitated samples were frozen overnight at −20° C., then centrifuged once again for 15 mins at 3000 rpm, before 150 μl of the clear supernatant was withdrawn for the concentration determination. The analysis was performed with an Agilent 1200 HPLC system with attached LCMS/MS detection.
5.2 Calculation of the PK Parameters
The calculation was performed by means of the PK calculation software WinNonLin®, where t1/2 means half-life within a specified interval (here: terminal t1/2, in hrs).

Where [4] appears, read: after intravenous administration in the female rat, read-out: Terminal half-life t1/2 (converted).

Chain of EP2 subtype of the human PGE2 receptor (P43116 whole entry): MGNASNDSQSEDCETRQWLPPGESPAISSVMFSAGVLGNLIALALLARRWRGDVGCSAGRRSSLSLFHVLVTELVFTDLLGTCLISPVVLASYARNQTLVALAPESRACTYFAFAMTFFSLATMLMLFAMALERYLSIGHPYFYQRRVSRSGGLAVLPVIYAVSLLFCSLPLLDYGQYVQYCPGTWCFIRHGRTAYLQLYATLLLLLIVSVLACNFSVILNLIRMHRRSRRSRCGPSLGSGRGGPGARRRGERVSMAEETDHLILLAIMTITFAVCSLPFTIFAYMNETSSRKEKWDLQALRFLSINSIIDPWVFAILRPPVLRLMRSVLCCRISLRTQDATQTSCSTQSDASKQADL
Chain of EP4 subtype of the human PGE2 receptor (P35408 whole entry): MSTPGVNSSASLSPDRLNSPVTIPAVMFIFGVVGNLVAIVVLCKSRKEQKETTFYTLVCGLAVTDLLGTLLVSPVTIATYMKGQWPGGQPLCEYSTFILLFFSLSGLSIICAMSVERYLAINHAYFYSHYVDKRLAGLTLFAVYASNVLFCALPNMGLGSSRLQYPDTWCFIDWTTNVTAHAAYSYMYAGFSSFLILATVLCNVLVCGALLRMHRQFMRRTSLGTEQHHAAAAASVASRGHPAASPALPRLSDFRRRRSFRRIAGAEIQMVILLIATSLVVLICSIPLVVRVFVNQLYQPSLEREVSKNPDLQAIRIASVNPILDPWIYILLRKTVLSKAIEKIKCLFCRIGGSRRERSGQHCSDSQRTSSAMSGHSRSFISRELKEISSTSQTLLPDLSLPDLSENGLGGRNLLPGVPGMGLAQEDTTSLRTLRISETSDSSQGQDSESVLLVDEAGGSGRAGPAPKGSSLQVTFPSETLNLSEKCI

Turning to `COCCNC(=O)c1ccc2nn(CC3CCN(C(=O)c4ccc(Oc5ccc(C(F)(F)F)cc5)cc4)CC3)cc2c1C` [Example 17, N-(2-methoxyethyl)-4-methyl-2-[(1-{4-[4-(trifluoromethyl)-phenoxy]benzoyl}-piperidin-4-yl)-methyl]-2H-indazol-5-carboxamide], the IC50 in data set [1] (read-out: Antagonism hEP2 IC50) stood at 3.44 nM. Moreover, the IC50 in data set [1] (read-out: IC50) stood at 3.4 nM. For the same molecule, the “Selectivity hEP2/hEP4” value in data set [2] was “xxx (xxx > 100)”. Further, in the data set with cumulus-oocyte complexes (0.5 μM, PGE2 0.3 μM), the “suppression of the cumulus expansion” value is “ca. 70%”. In the data set with cumulus-oocyte complexes, the inhibition at 1 µM came out at 76% and the inhibition at 0.5 µM stood at 71%. The “Terminal half-life t1/2” value in data set [3] (after intravenous administration in the female rat) came to 2.5 h. The half-life in data set [3] (intravenous administration, female rat, read-out: terminal half-life t1/2 (converted)) is 2.5 h.
Turning to `COCCNC(=O)c1ccc2nn(CC3CCN(C(=O)c4ccc(-c5ccc(F)cc5)cc4F)CC3)cc2c1C` [Example 42, 2-({1-[(3,4′-difluoro-biphenyl-4-yl)-carbonyl]piperidin-4-yl}methyl)-N-(2-methoxyethyl)-4-methyl-2H-indazol-5-carboxamide], in data set [1] (read-out: Antagonism hEP2 IC50), the IC50 was found to be 4.75 nM. Further, the “Selectivity hEP2/hEP4” value in data set [2] was “xxx (xxx > 100)”. For the same molecule, in the data set on cumulus-oocyte complexes, the inhibition at 1 µM turned out to be 79% and the inhibition at 0.5 µM was found to be 48%. Besides, the half-life in data set [3] (setting [4]) was 3.2 h.
The matching figures for `COCCNC(=O)c1ccc2nn(CC3CN(C(=O)c4ccc(Cl)cc4)C3)cc2c1C` [Example 117, 2-{[1-(4-chlorobenzoyl)azetidin-3-yl]methyl}-N-(2-methoxyethyl)-4-methyl-2H-indazol-5-carboxamide]: 17.8 nM, “xxx (xxx > 100)”, 54%, 30% and 2 h.
For `Cc1c(C(=O)NCC(F)(F)F)ccc2nn(CC3CCN(C(=O)c4ccc(Oc5ccc(F)cc5)cc4)CC3)cc12` [Example 283, 2-({1-[4-(4-fluorophenoxy)benzoyl]piperidin-4-yl}methyl)-4-methyl-N-(2,2,2-trifluoroethyl)-2H-indazol-5-carboxamide], the IC50 in data set [1] (read-out: Antagonism hEP2 IC50) is 65.5 nM. Besides, the “Selectivity hEP2/hEP4” value in data set [2] is listed as “xxx (xxx > 100)”. Further, in the data set on cumulus-oocyte complexes, the inhibition at 1 µM amounted to 26% and the inhibition at 0.5 µM was 25%. The half-life in data set [3] (setting [4]) is 5.8 h.

Values taken from patent publication US9062041B2 (Bayer Intellectual Property GmbH, priority 2011, dated 2015).
